The source of these data is patent publication US20090209644A1, “LIPOTOXICITY RELIEVING AGENT” (priority 2005, published 2009).

In one assay the test system is Langerhans' islet. The assay can be described thus: Combined use of EPA and tolbutamide on palmitic acid-suppressed insulin secretion of isolated Langerhans' islet (Experimental Example 4). To be noted: mouse islets; for activity at 5000 µM / activity at 400 µM: Mus musculus, read-out: insulin secretion, % of control group; for activity at 5000 µM / insulin secretion, % of control group / activity at 400 µM: control = 100%. The assay is classed as cell-based, mice (C57BL/6J).

Assay [1] relates to Min6 cells from mouse pancreatic β-cell. The assay can be described thus: Inhibition (prophylaxis) of lipotoxicity-impaired glucose-stimulated insulin secretion in Min6 cells (Experimental Example 1). The assay is classed as cell-based. The following applies: for insulin secretion (amount of insulin per mg of the protein): stimulated with 20 mM glucose. Here is the method: Min6 cells from mouse pancreatic β-cell (provided by Dr. Miyazaki of Osaka University) suspended in DMEM medium (manufactured by GIBCO, purchased from Iwai Chemicals Company) were seeded in a 24 well plate at 1.5×10^5 cells per well, and the cells were incubated in 5% CO2 at 37° C. for 24 hours. The medium was replaced with DMEM medium (manufactured by Sigma) containing 0.5% (v/v) fatty acid free bovine serum albumin (hereinafter abbreviated as BSA) and 5.5 mM glucose, and incubated in 5% CO2 at 37° C. for 48 hours with or without (control group) one of the following fatty acids, 0.4 mM palmitic acid (palmitic acid group), 50 μM EPA (EPA group), or 0.4 mM palmitic acid and 50 μM EPA (the group of palmitic acid plus EPA). The supernatant was removed from the cell culture of (1), and the cells were washed twice with phosphate buffered saline (hereinafter abbreviated as PBS(−)), and after adding 500 μL of Krebs-Ringer-Bicarbonate-Hepes buffer (hereinafter abbreviated as KRBH buffer) containing 0.5% (v/v) fatty acid free BSA and 2.8 mM glucose, the incubated was continued in 5% CO2 at 37° C. for 1 hour. The supernatant was removed from the cell culture, and after adding 500 μL of KRBH buffer containing 0.5% (v/v) BSA and 2.8 mM glucose, the incubation was continued in 5% CO2 at 37° C. for 1 hour, and the supernatant was collected as the sample which had been stimulated with 2.8 mM glucose. Next, the cells were washed twice with PBS(−), and incubated in KRBH buffer containing 0.5% (v/v) BSA and 20 mM glucose in 5% CO2 at 37° C. for 1 hour. The supernatant was collected as the sample which had been stimulated with 20 mM glucose. The samples collected were evaluated for their insulin concentration by Levis insulin assay kit (manufactured by Shibayagi and purchased from Nakayama Co., Ltd.) and for their protein concentration by the method of […] (BCA kit), and determine the amount of insulin per mg of the protein.

In assay [2] the test system is Langerhans' islet (pancreatic β-cell). The assay can be described thus: Glucose-stimulated insulin secretion of Langerhans' islet isolated from fed mice (Experimental Example 3). The assay is classed as in vivo, mice (C57BL/6J). To be noted: 20 mM glucose; for insulin secretion, % of control group: control = 100%. The text has this: Male mice (C57BL/6J, 8 week old, purchased from Clea Japan, Inc.) were fed on fish meal free F1 (manufactured by Funabashi Farms Co., Ltd.) for 1 week, and the mice were divided into 4 groups each including 9 to 10 mice. The 4 groups of mice were freely fed for 28 days on (1) fish meal free F1 (control group), (2) fish meal free F1 containing 20% by weight of tripalmitic acid added (palmitic acid group), (3) F1 feed not containing any fish meal having 20% by weight of tripalmitic acid and 5% by weight of EPA-E added (the group of palmitic acid plus EPA), and (4) F1 feed not containing any fish meal having 5% by weight of EPA-E added (EPA group). Before the start of the experiment, on 14th day, and on the final day, blood was taken from orbital venous plexus after fasting for 16 hours. The serum was separated, and blood free fatty acid was enzymatically measured by using NEFA Test Wako (Wako Pure Chemical Industries, Ltd.). Langerhans' islet was isolated by way of density gradient method from the pancreas that had been treated with collagenase, and cultivated in 10% (v/v) fetal bovine serum (purchased from Iwai Chemicals Company) and RPM 11640 medium) supplemented with 1% by weight of penicillin streptomycin (manufactured by Sigma) in 5% CO2 at 37° C. for 2 hours. The glucose-stimulated insulin secretion was then evaluated according to the procedure described in Experimental Example 1-(2). The Langerhans' islet was washed with PBS(−) and vigorously shaked in […] of TNE buffer (0.1M Tris-HCl, pH 7.4, 2M NaCl, 10 mM EDTA) to prepare the cell lysate. 20 μL of this cell lysate was added to 100 μL of chromogenic solution (1.2 μL of Hoechst 33258 (manufactured by Wako Pure Chemical Industries, Ltd.) added to 1 mL of TNE buffer), and the reaction was allowed to proceed at room temperature for at least 8 hours, and the measurement was conducted by using an excitation wavelength of 350 nm and a measurement wavelength of 450 nm. Similar evaluation was conducted by using bovine thymus DNA (manufactured by Sigma) to prepare a calibration curve to thereby enable determination of the DNA amount. Amount of insulin per μg of the DNA of the Langerhans' islet was measured.

The subject of a further assay is Min6 cells. The assay can be described thus: Restoration of impaired insulin secretion in Min6 cells after palmitic acid load (Experimental Example 2). In kind it is cell-based, mouse. The following applies: Min6, 0.4 mM palmitic acid load 48 h, 20 mM glucose; for insulin secretion, % of normal group: normal group = 100%. Here is the method: (1-1) Min6 cells suspended in DMEM medium (manufactured by Gibco) were seeded in a 24 well plate at 1.5×10^5 cells per well, and the cells were incubated overnight in 5% CO2 at 37° C. (1-2) To each well, palmitic acid was added to a concentration of 0.4 mM, and BSA not containing the fatty acid was added to a concentration of 0.5% (v/v), and the incubation was continued in 5% CO2 at 37° C. for 48 hours. (1-3) The cells were washed twice with PBS(−), and the incubation was continued in 5% CO2 at 37° C. for 48 hours in DMEM medium (manufactured by Sigma) after adding palmitic acid (palmitic acid group), oleic acid (oleic acid group), EPA (EPA group), or DHA (DHA group) at 50 μM, or in the absence of the fatty acid (control group). In the meanwhile, the Min6 cells cultured in the above (1-1) were incubated in the DMEM medium (manufactured by Sigma) for 48 hours as in the case of the above (1-2) but without adding the 0.4 mM palmitic acid (normal group), and these cells were washed twice with the PBS(−) and incubated in the DMEM medium (manufactured by Sigma) in the absence of the fatty acid in 5% CO2 at 37° C. for another 48 hours as in the case of the control group of the above (1-3) to prepare the sample (normal group). The stimulation with glucose was conducted by repeating the procedure of Experimental Example 1(2), and the sample that had been stimulated with 2.8 mM glucose and the sample that had been stimulated with 20 mM glucose were collected and the amount of insulin per mg of the protein were measured.

The nature of assay [3]: Blood (serum) free fatty acid in palmitic acid fed mice (Experimental Example 3). In kind it is in vivo, mice (C57BL/6J). The following applies: feed with 20% by weight tripalmitic acid, 28 days, vs control group. The text has this:
Male mice (C57BL/6J, 8 week old, purchased from Clea Japan, Inc.) were fed on fish meal free F1 (manufactured by Funabashi Farms Co., Ltd.) for 1 week, and the mice were divided into 4 groups each including 9 to 10 mice. The 4 groups of mice were freely fed for 28 days on (1) fish meal free F1 (control group), (2) fish meal free F1 containing 20% by weight of tripalmitic acid added (palmitic acid group), (3) F1 feed not containing any fish meal having 20% by weight of tripalmitic acid and 5% by weight of EPA-E added (the group of palmitic acid plus EPA), and (4) F1 feed not containing any fish meal having 5% by weight of EPA-E added (EPA group). Before the start of the experiment, on 14th day, and on the final day, blood was taken from orbital venous plexus after fasting for 16 hours. The serum was separated, and blood free fatty acid was enzymatically measured by using NEFA Test Wako (Wako Pure Chemical Industries, Ltd.). […] The glucose-stimulated insulin secretion was then evaluated according to the procedure described in Experimental Example 1-(2).

Where [4] appears, read: 0.4 mM palmitic acid plus 50 μM EPA, 5 mM tolbutamide or both, 20 mM glucose.
The mark [5] stands for this setting: 0.4 mM palmitic acid plus 50 μM EPA, 5 mM tolbutamide or both, 30 mM KCl.
The mark [6] stands for this setting: 0.4 mM palmitic acid plus 50 μM EPA, 5 mM tolbutamide or both, stimulated with 20 mM glucose.
The mark [7] stands for this setting: 0.4 mM palmitic acid plus 50 μM EPA, 5 mM tolbutamide or both, stimulated with 30 mM KCl.
[8] abbreviates: islets of mice fed 5% EPA-E alone 28 days.
[9] abbreviates: islets of mice fed 20% tripalmitic acid and 5% EPA-E 28 days.
Setting [10] is: islets of mice fed 20% tripalmitic acid 28 days.
The mark [11] stands for this setting: then 48 h without fatty acid (control group).

Where two headings read alike, the source gives them in different places.

For `CCCCNC(=O)NS(=O)(=O)c1ccc(C)cc1` [tolbutamide], the activity at 5000 µM came out at 65.4% in the assay with Langerhans' islet (setting [4]) and 54.2% with Langerhans' islet (setting [5]). The “insulin secretion (amount of insulin per 1 ng DNA of the Langerhans' islet)” value with Langerhans' islet (setting [6]) is listed as 673 pg; in the assay on Langerhans' islet (setting [7]) it was 316 pg.

Take `CC/C=C\C/C=C\C/C=C\C/C=C\C/C=C\CCCC(=O)O` [EPA, eicosapentaenoic acid]: the “insulin secretion (amount of insulin per mg of the protein)” value turned out to be 0.003664 mg in assay [1] (Min6, 50 μM EPA alone 48 h); 0.002096 mg in assay [1] (Min6, 0.4 mM palmitic acid and 50 μM EPA 48 h); 0.004278 mg with Min6 cells (then 50 μM fatty acid 48 h). In addition, the “insulin secretion, % of control group” value in assay [1] (Min6, 0.4 mM palmitic acid and 50 μM EPA 48 h, 20 mM glucose, control = 100%) came out at 54.6%; in assay [2] (setting [8]), 121%; in assay [2] (setting [9]), 111%; in the assay with Langerhans' islet (setting [4]), 80.0%; in the assay on Langerhans' islet (setting [5]), 72.4%. Moreover, in assay [1] (Mus musculus, Min6, 50 μM EPA alone 48 h, 20 mM glucose, control = 100%, read-out: insulin secretion, % of control group), the activity at 50 µM was 95.5%. Further, the “insulin secretion (amount of insulin per μg of the DNA of the Langerhans' islet)” value in assay [2] (setting [8]) was determined as 0.0089 µg; in assay [2] (setting [9]), 0.0082 µg. For the same compound, the “insulin secretion (amount of insulin per 1 ng DNA of the Langerhans' islet)” value in the assay with Langerhans' islet (setting [6]) came out at 823 pg; with Langerhans' islet (setting [7]), 422 pg. The “insulin secretion, % of normal group” value with Min6 cells (then 50 μM fatty acid 48 h) is on record as 85.4%.

In the case of `CCCCCCCCCCCCCCCC(=O)O` [palmitic acid], the “insulin secretion (amount of insulin per mg of the protein)” value in assay [1] (Min6, 0.4 mM palmitic acid alone 48 h) is 0.00091 mg; in the assay with Min6 cells (then 50 μM fatty acid 48 h), 0.000742 mg; in the assay on Min6 cells (setting [11]) it was 0.002481 mg. For the same compound, the activity at 400 µM in assay [1] (Mus musculus, Min6, 0.4 mM palmitic acid alone 48 h, 20 mM glucose, control = 100%, read-out: insulin secretion, % of control group) was found to be 23.7%; in the assay with Langerhans' islet (0.4 mM palmitic acid alone, 20 mM glucose), 55.6%; with Langerhans' islet (0.4 mM palmitic acid alone, 30 mM KCl) it was 39.3%. Further, in assay [2] (setting [10]), the “insulin secretion (amount of insulin per μg of the DNA of the Langerhans' islet)” value was determined as 0.0046 µg. Also, the “insulin secretion, % of control group” value in assay [2] (setting [10]) was 63%. Further, the “insulin secretion (amount of insulin per 1 ng DNA of the Langerhans' islet)” value with Langerhans' islet (0.4 mM palmitic acid alone, stimulated with 20 mM glucose) is 572 pg; with Langerhans' islet (0.4 mM palmitic acid alone, stimulated with 30 mM KCl), 229 pg. Also, the results for the “insulin secretion, % of normal group” value in the assay with Min6 cells (then 50 μM fatty acid 48 h) and with Min6 cells (setting [11]) were 14.8% and 49.6%, respectively. In assay [3], the “serum free fatty acid concentration” value was “increased more significantly with time”.

As to `CCCCCCCC/C=C\CCCCCCCC(=O)O` [oleic acid], in the assay on Min6 cells (then 50 μM fatty acid 48 h), the “insulin secretion (amount of insulin per mg of the protein)” value worked out at 0.000659 mg and the “insulin secretion, % of normal group” value is reported as 13.2%.

As to `CC/C=C\C/C=C\C/C=C\C/C=C\C/C=C\C/C=C\CCC(=O)O` [DHA, docosahexaenoic acid], in the assay with Min6 cells (then 50 μM fatty acid 48 h), the “insulin secretion (amount of insulin per mg of the protein)” value stood at 0.004073 mg and the “insulin secretion, % of normal group” value was 81.4%.
